From ChEMBL document CHEMBL3870354, “Viral Replication Inhibitors May Treat the Dengue Virus Infections” (ACS Med Chem Lett, 2017)

What was measured:
dengue virus type 2 = assay: Antiviral activity against eGPF-labeled DENV2 16681 infected in African green monkey Vero cells measured after 3 days by fluorescence microscopic analysis; assay type: functional, cell-based
[1] = Cytotoxicity against African green monkey Vero cells infected with eGPF-labeled DENV2 16681 assessed as reduction in cell viability measured after 3 days by ATPlite assay; assay type: toxicity, cell-based; conditions: chlorocebus sabaeus; for CC50 at 72 h: Vero cells infected with eGFP-labeled DENV2 16681; for CC50: vero, 72 h
[2] = Selectivity index, ratio of CC50 for African green monkey Vero cells infected with eGPF-labeled DENV2 16681 to EC50 for DENV2 16681 expressing eGPF infected in African green monkey Vero cells

EC50 (dengue virus type 2) [pM] | Structure (SMILES) | CC50 at 72 h [1] [µM] | Ratio CC50/EC50 [2] | CC50 [1] [µM]
520 | COc1cc(NC(C(=O)c2c[nH]c3cc(F)ccc23)c2ccc(Cl)cc2OC)cc(S(C)(=O)=O)c1 (racemic) | 5.5 | 11500 | –
260 | COc1cc(NC(C(=O)c2c[nH]c3c(C)c(F)ccc23)c2ccc(Cl)cc2OC)cc(S(C)(=O)=O)c1 (single isomer, unassigned; enantiomer 1) | 4.8 | 22000 | –
200 | COc1cc(NC(C(=O)c2c[nH]c3cc(F)c(C)cc23)c2ccc(Cl)cc2OC)cc(S(C)(=O)=O)c1 (single isomer, unassigned; enantiomer 2) | – | 18500 | 3.2
26000 | COc1cc(NC(C(=O)c2c[nH]c3c(C)c(F)ccc23)c2ccc(Cl)cc2OC)cc(S(C)(=O)=O)c1 (single isomer, unassigned; enantiomer 2) | – | 285 | 7.4
12000 | COc1cc(NC(C(=O)c2c[nH]c3cc(F)ccc23)c2ccc(Cl)cc2OC)cc(S(C)(=O)=O)c1 (single isomer, unassigned; enantiomer 2) | – | 530 | 6.5
260 | COc1cc(NC(C(=O)c2c[nH]c3cc(F)ccc23)c2ccc(Cl)cc2OC)cc(S(C)(=O)=O)c1 (single isomer, unassigned; enantiomer 1) | – | 19700 | 4.3
13000 | COc1cc(NC(C(=O)c2c[nH]c3cc(F)c(C)cc23)c2ccc(Cl)cc2OC)cc(S(C)(=O)=O)c1 (single isomer, unassigned; enantiomer 1) | – | 538 | 6.8

More lines, now with the values behind:

Structure (SMILES) | EC50 (dengue virus type 2) [pM] | CC50 at 72 h [1] [µM] | Ratio CC50/EC50 [2] | CC50 [1] [µM]
COc1cc(NC(C(=O)c2c[nH]c3ccc(OC(F)(F)F)cc23)c2ccc(Cl)cc2OC)cc(S(C)(=O)=O)c1 (single isomer, unassigned; enantiomer 2) | 3800 | – | 1480 | 6.2
COc1cc(NC(C(=O)c2c[nH]c3cc(OC)c(C)cc23)c2ccc(Cl)cc2OC)cc(S(C)(=O)=O)c1 (single isomer, unassigned; enantiomer 2) | 36000 | – | 341 | 12
COc1cc(NC(C(=O)c2c[nH]c3cc(OC)c(C)cc23)c2ccc(Cl)cc2OC)cc(S(C)(=O)=O)c1 (single isomer, unassigned) | 270 | – | 16900 | 4.2
COc1cc(NC(C(=O)c2c[nH]c3c(C)cc(OC(F)(F)F)cc23)c2ccc(Cl)cc2OC)cc(S(C)(=O)=O)c1 (stereo in doubt; 11A) | 85 | – | 30100 | 2.6
COc1cc(NC(C(=O)c2c[nH]c3c(C)cc(OC(F)(F)F)cc23)c2ccc(Cl)cc2OC)cc(S(C)(=O)=O)c1 (single isomer, unassigned; enantiomer 2) | 4100 | – | 22200 | 9.2
COc1cc(NC(C(=O)c2c[nH]c3ccc(OC(F)(F)F)cc23)c2ccc(Cl)cc2OC)cc(S(C)(=O)=O)c1 (single isomer, unassigned; enantiomer 1) | 67 | – | >37500 | 2.9
